The test concerns endogenous cellular STAT1 (phosphorylated at Tyr701) in NCI-H1373 cells. In words: Phospho-STAT1 (Tyr701) LANCE Ultra TR-FRET Detection Assay. The class given is cell-based. Conditions: Homo sapiens, NCI-H1373, 48 h, phospho-STAT1 (Tyr701) induction, read-out: NH1373 pSTAT1 EC50. The protocol:
Phospho-STAT1 (Tyr701 LANCE Ultra TR-FRET Detection Assay
d. LANCE Ultra phospho-STAT1 (Tyr701) kits are designed for the detection of phosphorylated STAT1 in cell lysates using a simple, homogeneous LANCE Ultra sandwich assay (Cat. #TRF4028M). This assay is intended for assessing compound induction of endogenous levels of cellular STAT1 (phosphorylated at Tyr701) in NCI-H1373 cells. The NCI-H1373 cells are cultured in RPMI 1640 media containing 10% heat inactivated FBS, GlutaMAX, 1% Penicillin-Streptomycin. An Echo acoustic liquid handler is used to transfer 60 nanoliters of compound dilutions using the Echo Qualified, 384-well polypropylene microplate clear flat bottom source plates into a Greiner (#781080) cell culture microplate. NCI-H1373 cells are seeded into these compound-spotted culture plates at 30,000 cells/well in a 60 uL volume in growth media. The plates are incubated in a 5% CO2 humidified incubator at 37° C. for 48 hours. […] After spinning the plate down at 300 rpm for 1 min, the plate is read on an EnVision plate reader set up for Eu3+ Cryptate and fluorescence emission is measured at two different wavelengths (665 nm and 620 nm). The HTRF ratio is then calculated […] for each well to determine the amount of pSTAT1 in the cell lysate, and the data is then normalized to 10 uM GS-1154611 positive and DMSO negative controls.

Molecules are shown by their SMILES. pEC50: −log10 of the molar value.

The pEC50 is the negative decadic logarithm of the EC50, by convention in mol/L.

`O=c1[nH]ncc(N2CCC2CCCn2cnc3cc(-c4ncc(C(F)(F)F)cn4)c(F)cc3c2=O)c1C(F)(F)F` (stereo not shown) [Example 150, 6-fluoro-3-[3-[1-[6-oxo-5-(trifluoromethyl)-1H-pyridazin-4-yl]azetidin-2-yl]propyl]-7-[5-(trifluoromethyl)pyrimidin-2-yl]quinazolin-4-one]: the pEC50 is 7.72.

`O=c1[nH]ncc(N2CC[C@@H]2CCCn2ccc3cc(-c4ncc(C(F)(F)F)cn4)c(F)cc3c2=O)c1C(F)(F)F` (single isomer, unassigned) [Example 148]: the pEC50 was 6.40.

For the compound `C[C@@H](CCCn1cnc2cc(-c3ncc4cc[nH]c4n3)c(F)cc2c1=O)Nc1cn[nH]c(=O)c1C(F)(F)F` [Example 62, 6-fluoro-3-[(4S)-4-[[6-oxo-5-(trifluoromethyl)-1H-pyridazin-4-yl]amino]pentyl]-7-(7H-pyrrolo[2,3-d]pyrimidin-2-yl)quinazolin-4-one], the pEC50 is 7.50.

Turning to `C[C@@H](CCCn1ccc2cc(-c3cnc(C(F)F)cn3)c(F)cc2c1=O)Nc1cn[nH]c(=O)c1C(F)(F)F` [Example 329, (S)-6-(5-(difluoromethyl)pyrazin-2-yl)-7-fluoro-2-(4-((6-oxo-5-(trifluoromethyl)-1,6-dihydropyridazin-4-yl)amino)pentyl)isoquinolin-1(2H)-one], the pEC50 was 7.01.

Regarding `C[C@@H](CCCn1ccc2cc(-c3cnc(Cl)c(N)n3)c(F)cc2c1=O)Nc1cn[nH]c(=O)c1C(F)(F)F` [Example 351, (S)-6-(6-amino-5-chloropyrazin-2-yl)-7-fluoro-2-(4-((6-oxo-5-(trifluoromethyl)-1,6-dihydropyridazin-4-yl)amino)pentyl)isoquinolin-1(2H)-one], the pEC50 is 8.08.

As to `O=c1[nH]ncc(N2CC3(CC3)C[C@H]2CCCn2ccc3cc(-c4ncc(C(F)(F)F)cn4)c(F)cc3c2=O)c1C(F)(F)F` [Example 142, 7-fluoro-2-[3-[(6R)-5-[6-oxo-5-(trifluoromethyl)-1H-pyridazin-4-yl]-5-azaspiro[2.4]heptan-6-yl]propyl]-6-[5-(trifluoromethyl)pyrimidin-2-yl]isoquinolin-1-one], the pEC50 was 7.41.

With `Nc1cn(C[C@@H]2CCC[C@H](Nc3cn[nH]c(=O)c3C(F)(F)F)C2)c(=O)c2cc(F)c(-c3ncc(C(F)(F)F)cn3)cc12` [Example 486, 4-amino-7-fluoro-2-(((1R,3S)-3-((6-oxo-5-(trifluoromethyl)-1,6-dihydropyridazin-4-yl)amino)cyclohexyl)methyl)-6-(5-(trifluoromethyl)pyrimidin-2-yl)isoquinolin-1(2H)-one], the pEC50 was 7.02.

Consider `[2H]C([2H])([2H])OC[C@@H](CCCn1cnc2cc(-c3ncc(C(F)(F)F)cn3)c(F)cc2c1=O)Nc1cn[nH]c(=O)c1C(F)(F)F` [Example 430, 6-fluoro-3-[(4R)-4-[[6-oxo-5-(trifluoromethyl)-1H-pyridazin-4-yl]amino]-5-(trideuteriomethoxy)pentyl]-7-[5-(trifluoromethyl)pyrimidin-2-yl]quinazolin-4-one], for which the pEC50 was 8.58.

Take `Nc1nc(-c2cc3ncn(CCC[C@@H](Nc4cn[nH]c(=O)c4C(F)(F)F)C4CC4)c(=O)c3cc2F)ncc1C(F)F` [Example 462, (R)-7-(4-amino-5-(difluoromethyl)pyrimidin-2-yl)-3-(4-cyclopropyl-4-((6-oxo-5-(trifluoromethyl)-1,6-dihydropyridazin-4-yl)amino)butyl)-6-fluoroquinazolin-4(3H)-one]: the pEC50 is 7.56.

In the case of `C[C@@H](CCCn1ccc2cc(-c3nccc(N)n3)c(F)cc2c1=O)Nc1cn[nH]c(=O)c1C(F)(F)F` [Example 198, (S)-6-(4-aminopyrimidin-2-yl)-7-fluoro-2-(4-((6-oxo-5-(trifluoromethyl)-1,6-dihydropyridazin-4-yl)amino)pentyl)isoquinolin-1(2H)-one], the pEC50 is 6.56.

For the compound `O=c1[nH]ncc(N[C@H](CCCn2ccc3cc(-c4cnc(C(F)F)cn4)c(F)cc3c2=O)COC(F)F)c1C(F)(F)F` [Example 424, (R)-2-(5-(difluoromethoxy)-4-((6-oxo-5-(trifluoromethyl)-1,6-dihydropyridazin-4-yl)amino)pentyl)-6-(5-(difluoromethyl)pyrazin-2-yl)-7-fluoroisoquinolin-1(2H)-one], the negative-log EC50 (pEC50) was 8.51.

On to `C[C@@H](CCCn1ccc2cc(-c3ncc(N(C)C)cn3)c(F)cc2c1=O)Nc1cn[nH]c(=O)c1C(F)(F)F` [Example 92, (S)-6-(5-(dimethylamino)pyrimidin-2-yl)-7-fluoro-2-(4-((6-oxo-5-(trifluoromethyl)-1,6-dihydropyridazin-4-yl)amino)pentyl)isoquinolin-1(2H)-one], for which the pEC50 is 7.96.

Regarding `O=c1[nH]ncc(N2CC[C@@H]2CCCn2cnc3cc(-c4ncc(C(F)(F)F)cn4)c(F)cc3c2=O)c1C(F)(F)F` (single isomer, unassigned) [Example 151], the pEC50 is 7.23.

`C[C@@H](CC(=O)Cn1ccc2cc(-c3ncc(C(F)(F)F)cn3)c(F)cc2c1=O)Nc1cn[nH]c(=O)c1C(F)(F)F` [Example 90, 7-fluoro-2-[(4S)-2-oxo-4-[[6-oxo-5-(trifluoromethyl)-1H-pyridazin-4-yl]amino]pentyl]-6-[5-(trifluoromethyl)pyrimidin-2-yl]isoquinolin-1-one]: the pEC50 was 7.28.

On to `CNc1cnc(-c2cc3ccn(C[C@@H]4CCC[C@H](Nc5cn[nH]c(=O)c5C(F)(F)F)C4)c(=O)c3cc2F)cn1` [Example 274, 7-fluoro-6-(5-(methylamino)pyrazin-2-yl)-2-(((1R,3S)-3-((6-oxo-5-(trifluoromethyl)-1,6-dihydropyridazin-4-yl)amino)cyclohexyl)methyl)isoquinolin-1(2H)-one], for which the pEC50 is 7.11.

As for `C[C@@H](CCCn1ccc2cc(-c3cc(F)c(N)cn3)c(F)cc2c1=O)Nc1cn[nH]c(=O)c1C(F)(F)F` [Example 96, (S)-6-(5-amino-4-fluoropyridin-2-yl)-7-fluoro-2-(4-((6-oxo-5-(trifluoromethyl)-1,6-dihydropyridazin-4-yl)amino)pentyl)isoquinolin-1(2H)-one], the pEC50 was 6.25.

On to `C[C@@H](CCCn1ccc2cc(-c3cnc(C(F)F)c(N)n3)c(F)cc2c1=O)Nc1cn[nH]c(=O)c1C(F)(F)F` [Example 324, (S)-6-(6-amino-5-(difluoromethyl)pyrazin-2-yl)-7-fluoro-2-(4-((6-oxo-5-(trifluoromethyl)-1,6-dihydropyridazin-4-yl)amino)pentyl)isoquinolin-1(2H)-one], for which the pEC50 was 8.33.

For `Nc1nc(-c2cc3ccn(C[C@@H]4CCC[C@H](Nc5cn[nH]c(=O)c5C(F)(F)F)C4)c(=O)c3c(F)c2F)ncc1Cl` [Example 243, 6-(4-amino-5-chloropyrimidin-2-yl)-7,8-difluoro-2-(((1R,3S)-3-((6-oxo-5-(trifluoromethyl)-1,6-dihydropyridazin-4-yl)amino)cyclohexyl)methyl)isoquinolin-1(2H)-one], the pEC50 was 8.53.

`O=c1[nH]ncc(N[C@H]2CCC[C@H](Cn3ccc4cc(-c5ncc(C(F)(F)F)cn5)c(F)cc4c3=O)C2)c1C(F)(F)F` [Example 228, 7-fluoro-2-(((1S,3S)-3-((6-oxo-5-(trifluoromethyl)-1,6-dihydropyridazin-4-yl)amino)cyclohexyl)methyl)-6-(5-(trifluoromethyl)pyrimidin-2-yl)isoquinolin-1(2H)-one]: the pEC50 was 5.00.
